30 molecules from patent publication US9260425B2 (Genetech, Inc., priority 2011, dated 2016) can be followed below.

The target in this experiment is Pim-1 (Homo sapiens (Human), UniProt P11309). Put plainly: Pim kinase binding activity assay (Example 901), PIM-1 enzyme, Caliper microfluidic peptide phosphorylation. The format is biochemical. Conditions: 20 pM PIM-1, 10 μM ATP, 1 μM FAM-peptide, 90 minutes at room temperature. The procedure:
Pim Kinase Binding Activity
A fluorescent-labeled Pim-specific peptide substrate, was custom synthesized by American Peptide Company (Sunnyvale, Calif.). Reaction Buffer contained 10 mM HEPES, pH 7.2, 10 mM MgCl2, 0.01% Tween 20, 2 mM DTT. Termination Buffer contained 190 mM HEPES, pH 7.2, 0.015% Brij-35, 0.2% Coating Reagent 3 (Caliper Life Sciences, Hopkinton, Mass.), 20 mM EDTA. Separation Buffer contained 100 mM HEPES, pH 7.2, 0.015% Brij-35, 0.1% Coating Reagent 3, 1:200 Coating Reagent 8 (Caliper Life Sciences, Hopkinton, Mass.), 10 mM EDTA and 5% DMSO.
PIM reactions were carried out in a final volume of 10 μL per well in a 384-well plate. A standard enzymatic reaction, initiated by the addition of 5 μL 2×ATP and test compound to 5 μL of 2× enzyme and FAM-peptide, contained 20 pM PIM-1, 50 pM PIM-2, or 55 pM PIM-3, 1 μM FAM-peptide, and 10 μM ATP, in Reaction Buffer. After 90 minutes of incubation at room temperature, the phosphorylation reaction was stopped by the addition of 10 μL Termination Buffer. The product and substrate in each independent reaction were separated on a 12-sipper microfluidic chip (Caliper Life Sciences, Hopkinton, Mass.) run on a Caliper LC3000® (Caliper Life Sciences, Hopkinton, Mass.). The separation of product and substrate was optimized by choosing voltages and pressure using Caliper's Optimizer software (Hopkinton, Mass.). […] The product and substrate fluorophore were excited at 488 nm and detected at 530 nm. Substrate conversion was calculated from the electropherogram using HTS Well Analyzer software (Caliper Life Sciences, Hopkinton, Mass.). Ki values for the test compound were calculated.

Pim-1, sequence (P11309 whole entry): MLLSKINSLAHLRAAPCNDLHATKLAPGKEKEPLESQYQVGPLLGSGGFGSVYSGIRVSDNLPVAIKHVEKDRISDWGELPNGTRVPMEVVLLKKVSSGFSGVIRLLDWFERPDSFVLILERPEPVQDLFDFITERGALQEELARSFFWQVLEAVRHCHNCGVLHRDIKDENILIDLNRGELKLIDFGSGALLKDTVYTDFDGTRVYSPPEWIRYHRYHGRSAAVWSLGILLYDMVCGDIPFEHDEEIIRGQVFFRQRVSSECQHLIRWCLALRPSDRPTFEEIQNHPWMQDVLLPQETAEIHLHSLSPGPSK

Usually Ki stands for the dissociation constant of the complex between target and ligand, obtained from inhibition or displacement. `Fc1ccccc1-c1n[nH]c2cnc(-c3cncnc3)cc12` [Example 138, 3-(2-fluorophenyl)-5-(pyrimidin-5-yl)-1H-pyrazolo[3,4-c]pyridine] gave a Ki of 577 nM.

With `NC1CCCN(c2ccncc2-c2cc3c(-c4ccccc4F)n[nH]c3cn2)CC1` (stereo not drawn) [Example 139, 1-(3-(3-(2-fluorophenyl)-1H-pyrazolo[3,4-c]pyridin-5-yl)pyridin-4-yl)azepan-4-amine], the affinity, expressed as Ki, was 255 nM. For `NC[C@@H]1CCCN(c2ccncc2-c2cc3c(-c4ccccc4F)n[nH]c3cn2)C1` [Example 140, (S)-(1-(3-(3-(2-fluorophenyl)-1H-pyrazolo[3,4-c]pyridin-5-yl)pyridin-4-yl)piperidin-3-yl)methanamine], the Ki is 412 nM. The value for `c1ccc(-c2n[nH]c3cnc(-n4cncn4)cc23)cc1` [Example 142, 3-phenyl-5-(1H-1,2,4-triazol-1-yl)-1H-pyrazolo[3,4-c]pyridine] was 306 nM. In the case of `NCCNc1cccc(-c2n[nH]c3cnc(-c4cccnc4)cc23)n1` [Example 143, N1-(6-(5-(pyridin-3-yl)-1H-pyrazolo[3,4-c]pyridin-3-yl)pyridin-2-yl)ethane-1,2-diamine], affinity was put at a Ki of 0.312 nM. The value for `N#CCc1n[nH]c2cnc(-c3cn[nH]c3)cc12` [Example 145, 2-(5-(1H-pyrazol-4-yl)-1H-pyrazolo[3,4-c]pyridin-3-yl)acetonitrile] was 324 nM; that for `c1ccc(-c2n[nH]c3cnc(-n4ccnc4)cc23)cc1` [Example 146, 5-(1H-imidazol-1-yl)-3-phenyl-1H-pyrazolo[3,4-c]pyridine] was 26.7 nM; that for `Fc1ccccc1-c1n[nH]c2cnc(-c3cnccc3O[C@H]3CCCNC3)cc12` [Example 148, (S)-3-(2-fluorophenyl)-5-(4-(piperidin-3-yloxy)pyridin-3-yl)-1H-pyrazolo[3,4-c]pyridin] was 0.342 nM. For `c1ccc(-c2n[nH]c3cnc(-c4cncnc4)cc23)cc1` [Example 150, 3-phenyl-5-(pyrimidin-5-yl)-1H-pyrazolo[3,4-c]pyridine], the Ki came out at 209 nM. On to `Fc1ccccc1-c1n[nH]c2cnc(-c3cnccc3OCC3CCNCC3)cc12` [Example 155, 3-(2-fluorophenyl)-5-(4-(piperidin-4-ylmethoxy)pyridin-3-yl)-1H-pyrazolo[3,4-c]pyridine], for which the Ki is 0.614 nM.

In the case of `c1cncc(-c2cc3c(-c4cn[nH]c4)n[nH]c3cn2)c1` [Example 156, 3-(1H-pyrazol-4-yl)-5-(pyridin-3-yl)-1H-pyrazolo[3,4-c]pyridine], the affinity corresponds to a Ki of 2.31 nM.

On to `NC1CCN(c2cncc(-c3cc4c(-c5ccccc5F)n[nH]c4cn3)c2)CC1` [Example 157, 1-(5-(3-(2-fluorophenyl)-1H-pyrazolo[3,4-c]pyridin-5-yl)pyridin-3-yl)piperidin-4-amine], for which the Ki came to 1.31 nM. The value for `NC1CCN(c2cncc(-c3n[nH]c4cnc(-c5cccnc5)cc34)c2)CC1` [Example 158, 1-(5-(5-(pyridin-3-yl)-1H-pyrazolo[3,4-c]pyridin-3-yl)pyridin-3-yl)piperidin-4-amine] was 2.1 nM. For the molecule `NCCNc1cc(-c2n[nH]c3cnc(-c4cccnc4)cc23)ccn1` [Example 159, N1-(4-(5-(pyridin-3-yl)-1H-pyrazolo[3,4-c]pyridin-3-yl)pyridin-2-yl)ethane-1,2-diamine], affinity was put at a Ki of 0.941 nM. As for `NC1CCN(c2cc(-c3n[nH]c4cnc(-c5cccnc5)cc34)ccn2)CC1` [Example 160], the Ki was determined as 2.78 nM.

In the case of `c1cncc(-c2cc3c(-c4cccc(N5CCNCC5)n4)n[nH]c3cn2)c1` [Example 162, 3-(6-(piperazin-1-yl)pyridin-2-yl)-5-(pyridin-3-yl)-1H-pyrazolo[3,4-c]pyridine], the Ki was found to be 0.037 nM. With `Cn1cc(-c2cc3c(-c4cnn(C)c4)n[nH]c3cn2)cn1` [Example 163, 3,5-bis(1-methyl-1H-pyrazol-4-yl)-1H-pyrazolo[3,4-c]pyridine] the figure was 1.92 nM; with `NC[C@H]1CCN(c2cncc(-c3cc4c(-c5ccccc5F)n[nH]c4cn3)c2)C1` [Example 164, (R)-(1-(5-(3-(2-fluorophenyl)-1H-pyrazolo[3,4-c]pyridin-5-yl)pyridin-3-yl)pyrrolidin-3-yl)methanamine], 1.9 nM.

`NCC1CCN(c2cncc(-c3n[nH]c4cnc(-c5cccnc5)cc34)c2)CC1` [Example 165, (1-(5-(5-(pyridin-3-yl)-1H-pyrazolo[3,4-c]pyridin-3-yl)pyridin-3-yl)piperidin-4-yl)methanamine]: the Ki came out at 0.985 nM. With `NC1CCCN(c2cncc(-c3cc4c(-c5ccccc5F)n[nH]c4cn3)c2)CC1` (stereo not drawn) [Example 166, 1-(5-(3-(2-fluorophenyl)-1H-pyrazolo[3,4-c]pyridin-5-yl)pyridin-3-yl)azepan-4-amine] the figure was 0.574 nM; with `NCC1CCN(c2cncc(-c3cc4c(-c5ccccc5F)n[nH]c4cn3)c2)CC1` [Example 167, (1-(5-(3-(2-fluorophenyl)-1H-pyrazolo[3,4-c]pyridin-5-yl)pyridin-3-yl)piperidin-4-yl)methanamine], 1.71 nM. With `NC[C@H]1CCN(c2cncc(-c3n[nH]c4cnc(-c5cccnc5)cc34)c2)C1` [Example 168, (R)-(1-(5-(5-(pyridin-3-yl)-1H-pyrazolo[3,4-c]pyridin-3-yl)pyridin-3-yl)pyrrolidin-3-yl)methanamine] the figure was 1.6 nM.

With `NC1CCCN(c2cncc(-c3n[nH]c4cnc(-c5cccnc5)cc34)c2)CC1` (stereo not drawn) [Example 169, 1-(5-(5-(pyridin-3-yl)-1H-pyrazolo[3,4-c]pyridin-3-yl)pyridin-3-yl)azepan-4-amine], the Ki turned out to be 1.35 nM. `c1cncc(-c2cc3c(-c4cncc(NC5CCNCC5)c4)n[nH]c3cn2)c1` [Example 170, N-(piperidin-4-yl)-5-(5-(pyridin-3-yl)-1H-pyrazolo[3,4-c]pyridin-3-yl)pyridin-3-amine] displayed a Ki of 0.443 nM. For the molecule `Fc1ccccc1-c1n[nH]c2cnc(-c3cncc(NC4CCNCC4)c3)cc12` [Example 171, 5-(3-(2-fluorophenyl)-1H-pyrazolo[3,4-c]pyridin-5-yl)-N-(piperidin-4-yl)pyridin-3-amine], the Ki turned out to be 2.42 nM.

Regarding `COc1ccc(F)c(-c2n[nH]c3cnc(-c4cnn(C)c4)cc23)c1` [Example 172, 3-(2-fluoro-5-methoxyphenyl)-5-(1-methyl-1H-pyrazol-4-yl)-1H-pyrazolo[3,4-c]pyridine], the Ki was 3.76 nM. The value for `Cn1cc(-c2cc3c(-c4cccc(N5CCC(N)CC5)n4)n[nH]c3cn2)cn1` [Example 174, 1-(6-(5-(1-methyl-1H-pyrazol-4-yl)-1H-pyrazolo[3,4-c]pyridin-3-yl)pyridin-2-yl)piperidin-4-amine] was 0.086 nM; that for `c1cncc(-c2cc3c(-c4cnn(C5CCNCC5)c4)n[nH]c3cn2)c1` [Example 175, 3-(1-(piperidin-4-yl)-1H-pyrazol-4-yl)-5-(pyridin-3-yl)-1H-pyrazolo[3,4-c]pyridine] was 0.3 nM; that for `c1cncc(-c2cc3c(-c4cccnc4)n[nH]c3cn2)c1` [Example 176, 3,5-di(pyridin-3-yl)-1H-pyrazolo[3,4-c]pyridine] was 6.46 nM.

As to `NC(=O)Cn1cc(-c2cc3c(-c4cccc(F)n4)n[nH]c3cn2)cn1` [Example 178, 2-(4-(3-(6-fluoropyridin-2-yl)-1H-pyrazolo[3,4-c]pyridin-5-yl)-1H-pyrazol-1-yl)acetamide], the Ki is 17.6 nM.
